In publication PMC8512562, “Semisynthetic Derivatives of Selected Amaryllidaceae Alkaloids as a New Class of Antimycobacterial Agents” (Molecules, 2021):
In brackets after ≈: the same amount, converted by molar mass. Where two headings read alike, the source gives them in different places.

Experiments:
[1] = system: Mycobacterium tuberculosis H37Ra; assay: Antimycobacterial screening (microdilution broth, resazurin) against M. tuberculosis H37Ra; type: cell-based; conditions: for MIC: Mycobacterium tuberculosis
[2] = system: Mycobacterium smegmatis DSM 43465 (ATCC 607); assay: Antimycobacterial screening (microdilution broth, resazurin) against M. smegmatis; type: cell-based; conditions: Mycolicibacterium smegmatis, read-out: MIC M. smegmatis
[3] = system: Mycobacterium aurum DSM 43999 (ATCC 23366); assay: Antimycobacterial screening (microdilution broth, resazurin) against M. aurum; type: cell-based; conditions: for MIC: Mycolicibacterium aurum, read-out: MIC M. aurum
[4] = system: HepG2 cells; assay: cells; type: cell-based, Human; conditions: for IC50: Homo sapiens, HepG2, MTT, 24 h incubation
[5] = H37RA, 120 h, read-out: MIC Mtb H37Ra
[6] = H37RA, read-out: MIC Mtb H37Ra (µM)
[7] = M. tuberculosis H37Ra, resazurin added after 120 h, read-out: MIC Mtb H37Ra
[8] = range of MIC of the standards in the assay

Row | SMILES | MIC [1, 5] [µg/mL] | MIC [1, 6] [µM] | MIC ([2]; 48 h) [µg/mL] | MIC ([3]; 72 h) [µg/mL] | IC50 [4] [µM] | MIC [1, 7] [µg/mL] | SI (selectivity index) [4] | MIC values for standards, range, M. tuberculosis [1, 8] [µg/mL] | MIC ([2]; resazurin added after 48 h) [µg/mL] | MIC ([3]; resazurin added after 72 h) [µg/mL] | MIC values for standards, range, M. aurum [3, 8] [µg/mL]
1 | CCOc1cc(OCC)cc(C(=O)OC2C=C3C4CN(Cc5cc6c(cc54)OCO6)C3CC2OC)c1 (stereo not shown) [3e, 2-O-(3,5-diethoxybenzoyl)-3-O-methylpancracine] | 3.91 | 7.8 | 15.6 (≈ 31.7 µM) | 7.81 (≈ 15.8 µM) | 24.9 ± 1.7 | – | – | – | – | – | –
2 | COc1ccc(C(=O)O[C@H]2C=C[C@@]34CCN(C)Cc5ccc(OC)c(c53)O[C@H]4C2)cc1OC [1m, 6-O-(3,4-dimethoxybenzoyl)galanthamine] | – | 128 | 250 (≈ 554 µM) | 125 (≈ 277 µM) | – | 62.5 | – | – | – | – | –
3 | COc1ccc2c3c1O[C@H]1C[C@@H](OC(=O)c4cccc(C)c4C)C=C[C@@]31CCN(C)C2 [1e, 6-O-(2,3-dimethylbenzoyl)galanthamine] | – | 17.1 | 31.2 (≈ 74.5 µM) | 15.6 (≈ 37.2 µM) | 17.9 ± 2.6 | 7.81 | 1.05 | – | – | – | –
4 | COc1cc2c(cc1OC)[C@@H]1[C@H](O)[C@@H](OC)C=C3CCN(C2)[C@H]31 [galanthine (6), galanthine] | – | 788 | ≥ 500 | 250 (≈ 788 µM) | – | 250 | – | – | – | – | –
5 | COC1CC2C(=CC1O)C1CN2Cc2cc3c(cc21)OCO3 (stereo not shown) [3-O-methylpancracine (3), 3-O-methylpancracine] | – | ≥ 1660 | ≥ 500 | ≥ 500 | – | ≥ 500 | – | – | – | – | –
6 | CO[C@H]1C=C2[C@H]3C[N@@](Cc4cc5c(cc43)OCO5)[C@H]2C[C@@H]1O [montanine (8), montanine] | – | ≥ 1660 | ≥ 500 | ≥ 500 | – | ≥ 500 | – | – | – | – | –
7 | COc1ccc2c3c1O[C@H]1C[C@@H](OC(=O)c4ccco4)C=C[C@@]31CCN(C)C2 [1s, 6-O-(2-furoyl)galanthamine] | – | 150 | ≥ 500 | 250 (≈ 655 µM) | – | 62.5 | – | – | – | – | –
8 | COC1CC2C(=CC1OC(=O)c1ccc3ccccc3c1)C1CN2Cc2cc3c(cc21)OCO3 (stereo not shown) [3g, 2-O-(2-naphthoyl)-3-O-methylpancracine] | – | 31.8 | 15.6 (≈ 34.3 µM) | 15.6 (≈ 34.3 µM) | – | 15.6 | – | – | – | – | –
9 | CO[C@H]1/C=C/O[C@@]2(C)Oc3c(C)c(O)c4c(O)c(c(/C=N/N5CCN(C)CC5)c(O)c4c3C2=O)NC(=O)/C(C)=C\C=C\[C@H](C)[C@H](O)[C@@H](C)[C@@H](O)[C@@H](C)[C@H](OC(C)=O)[C@@H]1C [rifampicin, reference compound] | 0.00625 | 0.0075 | – | – | – | – | – | 0.0039 to 0.0078 | 6.25 (≈ 7.59 µM) | 0.39 (≈ 0.474 µM) | 0.39 to 0.78
10 | COc1ccccc1C(=O)O[C@H]1C=C[C@@]23CCN(C)Cc4ccc(OC)c(c42)O[C@H]3C1 [1j, 6-O-(2-methoxybenzoyl)galanthamine] | – | 148 | 250 (≈ 593 µM) | 125 (≈ 297 µM) | – | 62.5 | – | – | – | – | –
11 | COc1ccc2c3c1O[C@H]1C[C@@H](OC(=O)c4cccc(C)c4)C=C[C@@]31CCN(C)C2 [1c, 6-O-(3-methylbenzoyl)galanthamine] | – | 35.4 | 31.2 (≈ 77.1 µM) | 15.6 (≈ 38.5 µM) | – | 15.6 | – | – | – | – | –
12 | COc1ccc2c3c1O[C@H]1C[C@@H](O)C=C[C@@]31CCN(C)C2 [galanthamine (1), galanthamine, reference compound] | – | ≥ 1740 | ≥ 500 | ≥ 500 | – | ≥ 500 | – | – | – | – | –
13 | COc1cc(OC)cc(C(=O)O[C@H]2C=C[C@@]34CCN(C)Cc5ccc(OC)c(c53)O[C@H]4C2)c1 [1n, 6-O-(3,5-dimethoxybenzoyl)galanthamine] | – | 34.6 | 31.2 (≈ 69.2 µM) | 31.2 (≈ 69.2 µM) | – | 15.6 | – | – | – | – | –
14 | COc1cccc(C(=O)O[C@H]2C=C[C@@]34CCN(C)Cc5ccc(OC)c(c53)O[C@H]4C2)c1 [1k, 6-O-(3-methoxybenzoyl)galanthamine] | – | 68.3 | 62.5 (≈ 148 µM) | 31.2 (≈ 74.1 µM) | – | 31.2 | – | – | – | – | –
15 | COc1ccc(C(=O)O[C@H]2C=C[C@@]34CCN(C)Cc5ccc(OC)c(c53)O[C@H]4C2)cc1 [1l, 6-O-(4-methoxybenzoyl)galanthamine] | – | 68.3 | 62.5 (≈ 148 µM) | 31.2 (≈ 74.1 µM) | – | 31.2 | – | – | – | – | –
16 | COc1ccc2c3c1O[C@H]1C[C@@H](OC(=O)c4ccccc4)C=C[C@@]31CCN(C)C2 [1a, 6-O-benzoylgalanthamine] | – | 79.8 | – | 31.2 (≈ 79.8 µM) | – | 31.2 | – | – | ≥ 500 | – | –
17 | COc1cc(C(=O)O[C@H]2C=C[C@@]34CCN(C)Cc5ccc(OC)c(c53)O[C@H]4C2)cc(OC)c1OC [1o, 6-O-(3,4,5-trimethoxybenzoyl)galanthamine] | – | 121 | 250 (≈ 519 µM) | 125 (≈ 260 µM) | – | 62.5 | – | – | – | – | –
